Source: PubChem BioAssay (NCI)
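Cells were grown in 96-well plates and exposed to each compound for 48 hours at five concentrations; endpoints were interpolated linearly between bracketing concentrations, or set to the highest concentration if not reached. GI50 marks 50% less growth. TGI: total growth inhibition.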

How the values were obtained:
Test in all cases: NCI tumour cell line growth inhibition, 48 h
K-562 leukemia = system: K-562 leukemia
OVCAR-4 ovarian = system: OVCAR-4 ovarian
LOX IMVI melanoma = system: LOX IMVI melanoma
UO-31 renal = system: UO-31 renal
OVCAR-8 ovarian = system: OVCAR-8 ovarian
NCI-H460 lung = system: NCI-H460 lung
KM12 colon = system: KM12 colon
SF-295 CNS = system: SF-295 CNS
HOP-62 NSCLC = system: HOP-62 NSCLC
OVCAR-3 ovarian = system: OVCAR-3 ovarian

SMILES	GI50 (K-562 leukemia) [nM]	TGI (K-562 leukemia) [µM]	GI50 (OVCAR-4 ovarian) [µM]	TGI (OVCAR-4 ovarian) [µM]	GI50 (LOX IMVI melanoma) [nM]	TGI (LOX IMVI melanoma) [µM]	GI50 (UO-31 renal) [µM]	TGI (UO-31 renal) [µM]	GI50 (OVCAR-8 ovarian) [µM]	TGI (OVCAR-8 ovarian) [µM]	GI50 (NCI-H460 lung) [µM]	TGI (NCI-H460 lung) [µM]	GI50 (KM12 colon) [µM]	TGI (KM12 colon) [µM]	GI50 (SF-295 CNS) [µM]	TGI (SF-295 CNS) [µM]	GI50 (HOP-62 NSCLC) [µM]	TGI (HOP-62 NSCLC) [µM]	GI50 (OVCAR-3 ovarian) [µM]	TGI (OVCAR-3 ovarian) [µM]
COc1cc2nc(SCc3cc(OC)c(OC)c(OC)c3)n(Cc3ccccc3)c(=O)c2cc1OC	875	> 100	5.5	> 100	4350	> 100	3.9	> 100	6.71	> 100	3.09	> 100	2.55	> 100	2.49	11.7	4.48	20.6	2.24	8.37
CCC[CH2][Sn]([Cl])([Cl])[CH2]CCC	233	1.24	1.4	2.78	464	1.84	1.39	2.69	1.88	7.02	1.75	3.72	1.35	2.81	1.53	2.92	1.92	3.36	1.03	2.32
COc1ccc(N=NC(C(=O)c2ccccc2)C(=O)c2ccccc2)cc1	–	> 100	–	> 100	–	47	–	51.7	–	> 100	–	68.4	–	> 100	–	> 100	–	68.5	–	> 100
COc1cc2c(c(OC)c1OC)-c1ncc3c(OC)c(OC)c(OC)cc3c1C2	19200	50.3	49.6	> 100	16200	32.3	18	47.2	18.9	58.2	32.6	> 100	16.1	40.4	22	47.1	28.5	86	21.5	50.9
CCOC(=O)C(=O)Nc1ccccc1C	–	> 100	–	> 100	–	> 100	–	> 100	–	> 100	–	> 100	–	–	–	–	–	> 100	–	–
CC[n+]1oc(C(=O)c2ccc(Cl)cc2)c(-c2ccccc2)c1-c1ccccc1.[Cl][Fe]([Cl])([Cl])[Cl]	> 100000	> 100	65.7	> 100	1820	> 100	2.23	21.5	45.5	> 100	43.2	> 100	89.9	> 100	53.1	> 100	29.7	> 100	23.1	56.2
CCCCCCCCCCCCCCCCCC1=NC(C)(C)CN1CC(C)O (stereo not drawn)	2450	5.44	12.5	28.4	1810	3.44	13.8	29.4	3.99	14.5	2.78	7.06	6.18	19.5	13	31.4	5.69	26	5.35	19.5
CCOC(=O)Nc1nc2ccc(OC)cc2s1	> 100000	> 100	> 100	> 100	> 100000	> 100	> 100	> 100	> 100	> 100	> 100	> 100	> 100	> 100	> 100	> 100	> 100	> 100	> 100	> 100
O=c1c2cc(F)ccc2sc2c(N3CCNCC3)nc3ccc(F)cc3c12	–	–	1.83	3.48	1620	3.16	1.31	2.6	–	–	1.59	3.12	1.79	3.34	1.78	3.22	1.82	3.85	1.73	3.17
CC1=C(C(=O)CC(=O)C(=O)Nc2cc(C)ccc2C)Sc2ccccc2N1	–	> 100	–	> 100	–	> 100	–	> 100	–	> 100	–	–	–	> 100	–	> 100	–	> 100	–	> 100
O=C(CCC(=O)Nc1ccc(Cl)c(Cl)c1)CC(=O)c1ccc(Br)cc1	–	> 100	–	> 100	–	> 100	–	> 100	–	> 100	–	–	–	> 100	–	–	–	–	–	> 100
Cc1[nH]nc(C(F)(F)F)c1N=NN(C)C	–	11.9	–	–	–	> 100	–	5.03	–	24.6	–	26.6	–	29.3	–	25.7	–	27	–	22.1
CS(=O)(=O)CCNCc1cc(-c2cc3c(Nc4ccc(OCc5cccc(F)c5)c(Cl)c4)ncnc3s2)cs1	6250	17.8	14.4	> 25	5560	16.3	4.52	> 25	16.5	> 25	9.64	> 25	6.55	> 25	9.89	> 25	> 16.8	> 25	6.82	> 25
COc1cccc(/C(C#N)=C/c2nc3c(N4CCOCC4)nc(Cl)nc3n2C)c1	447	10.3	1.23	2.59	1010	2.25	0.48	1.92	1.01	3.07	1.71	3.65	1.77	3.53	2.47	7.88	1.6	3.64	0.611	1.92
